Read-outs that look alike come from different tables or passages of the source.

We go through 3 compounds from article PMC10709440, “High-throughput ligand profile characterization in novel cell lines expressing seven heterologous insect olfactory receptors for the detection of volatile plant biomarkers” (Scientific Reports, 2023).

Experiment [1] has as its target T1, Drosophila OR10a (Drosophila melanogaster, UniProt Q9VYZ1).
T1 construct: expressed in transfected cells
T1 sequence (Q9VYZ1 1-406): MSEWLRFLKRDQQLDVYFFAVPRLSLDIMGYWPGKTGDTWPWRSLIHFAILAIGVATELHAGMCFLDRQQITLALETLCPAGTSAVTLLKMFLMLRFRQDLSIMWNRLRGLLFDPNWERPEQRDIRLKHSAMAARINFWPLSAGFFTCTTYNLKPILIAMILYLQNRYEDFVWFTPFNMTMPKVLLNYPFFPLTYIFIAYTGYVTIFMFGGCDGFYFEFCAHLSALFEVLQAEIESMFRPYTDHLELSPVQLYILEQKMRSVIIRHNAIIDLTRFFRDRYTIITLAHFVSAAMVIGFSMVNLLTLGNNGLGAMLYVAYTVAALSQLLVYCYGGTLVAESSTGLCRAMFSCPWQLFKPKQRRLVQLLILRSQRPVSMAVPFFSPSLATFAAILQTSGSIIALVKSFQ
T1 sequence (Q9VNB5 1-486 partner): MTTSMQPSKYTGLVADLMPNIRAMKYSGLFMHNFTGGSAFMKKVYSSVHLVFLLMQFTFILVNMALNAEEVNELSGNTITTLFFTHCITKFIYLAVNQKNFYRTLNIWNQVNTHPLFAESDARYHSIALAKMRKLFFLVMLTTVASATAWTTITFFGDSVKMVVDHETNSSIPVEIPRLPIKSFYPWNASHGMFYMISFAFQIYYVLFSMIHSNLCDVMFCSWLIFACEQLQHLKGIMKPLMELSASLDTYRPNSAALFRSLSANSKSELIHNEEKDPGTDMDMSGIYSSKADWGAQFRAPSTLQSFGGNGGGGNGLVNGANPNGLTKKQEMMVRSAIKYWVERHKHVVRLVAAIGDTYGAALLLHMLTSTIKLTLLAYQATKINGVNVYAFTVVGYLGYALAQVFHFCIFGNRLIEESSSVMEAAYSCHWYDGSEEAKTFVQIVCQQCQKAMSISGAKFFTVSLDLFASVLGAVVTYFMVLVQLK
Nature of the experiment: Calcium ion fluorescence (GCaMP6) assay, OR10a stable HEK293 cell line. Type of experiment: cell-based. The essentials:
(§1)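 Responses are VUAA1-normalized ΔF: each VOC-evoked calcium signal, (FMAX−F0)/F0 over 30 s after injection, divided by the same line's mean 50 µM VUAA1 response. Cells were doxycycline-induced HEK293 with GCaMP6 and the cognate Drosophila OR, in HEPES buffer pH 7.3; ligands tested 0.01–100 μM.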

For experiment [2], the target named is T2, Drosophila OR71a (Drosophila melanogaster, UniProt Q9VUK5).
T2 construct: expressed in transfected cells
T2 sequence (Q9VUK5 1-378): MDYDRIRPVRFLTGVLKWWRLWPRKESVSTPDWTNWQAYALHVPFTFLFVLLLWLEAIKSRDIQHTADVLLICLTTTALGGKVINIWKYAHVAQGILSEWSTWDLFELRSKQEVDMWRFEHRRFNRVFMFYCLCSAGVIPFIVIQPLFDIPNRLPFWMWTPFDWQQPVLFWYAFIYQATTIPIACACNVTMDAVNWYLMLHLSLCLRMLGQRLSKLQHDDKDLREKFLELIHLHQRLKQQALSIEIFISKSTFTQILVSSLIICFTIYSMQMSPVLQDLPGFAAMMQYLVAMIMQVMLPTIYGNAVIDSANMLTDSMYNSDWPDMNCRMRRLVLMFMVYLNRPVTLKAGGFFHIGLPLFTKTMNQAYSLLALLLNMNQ
T2 sequence (Q9VNB5 1-486 partner): T1 sequence (Q9VNB5 1-486 partner)
Nature of the experiment: Calcium ion fluorescence (GCaMP6) assay, OR71a stable HEK293 cell line. Type of experiment: cell-based. Particulars: for Average response: OR71a cell line, VUAA1-normalized response, mean of biological replicates. The essentials:
as §1

[3] abbreviates: ligand concentration 1 (unit not given), threshold 0.05, below shown as 0.
The mark [4] stands for this setting: ligand concentration 10 (unit not given), threshold 0.05, below shown as 0.
[5] abbreviates: ligand concentration 100 (unit not given), threshold 0.05, below shown as 0.
The mark [6] stands for this setting: HEK293, read-out: OR71a response (VUAA1-normalized response).
The mark [7] stands for this setting: 1 μM VOC, 50 μM VUAA1 = 1, responses not exceeding 0.05 considered 0.
Where [8] appears, read: 10 μM VOC, 50 μM VUAA1 = 1, responses not exceeding 0.05 considered 0.
Setting [9] is: 100 μM VOC, 50 μM VUAA1 = 1, responses not exceeding 0.05 considered 0.
Where [10] appears, read: concentration 1, normalized fluorescence change, values below 0.05 threshold given as 0.
Setting [11] is: concentration 10, normalized fluorescence change, values below 0.05 threshold given as 0.
Where [12] appears, read: concentration 100, normalized fluorescence change, values below 0.05 threshold given as 0.

On to `C=C1CCC2CC1C2(C)C` (stereo not drawn) [beta-pinene], for which the activation at 1 µM is 2.77% in experiment [1] (HEK293, read-out: OR10a Average response (VUAA1-normalized), 1 μM VOC, 50 μM VUAA1 = 1, responses not exceeding 0.05 considered 0); 0% in experiment [1] (HEK293, read-out: OR10a response (VUAA1-normalized response), VOC concentration 1 μM); 0% in experiment [2] (setting [6]). For the same compound, the activation at 10 µM in experiment [1] (HEK293, read-out: OR10a Average response (VUAA1-normalized), 10 μM VOC, 50 μM VUAA1 = 1, responses not exceeding 0.05 considered 0) came out at 4%; in experiment [1] (HEK293, read-out: OR10a response (VUAA1-normalized response), VOC concentration 10 μM) it was 0%; in experiment [2] (setting [6]), 0%. Moreover, the activation at 100 µM in experiment [1] (HEK293, read-out: OR10a Average response (VUAA1-normalized), 100 μM VOC, 50 μM VUAA1 = 1, responses not exceeding 0.05 considered 0) came to 9%; in experiment [1] (HEK293, read-out: OR10a response (VUAA1-normalized response), VOC concentration 100 μM) it was 9%; in experiment [2] (setting [6]), 0%. The “DF norm AVERAGE OR10a” value in experiment [1] (setting [3]) was 0; in experiment [1] (setting [4]), 0; in experiment [1] (setting [5]) it was 0.0885. Besides, the Average response in experiment [2] (cc. 1 µM) is reported as 0.0344; in experiment [2] (cc. 10 µM), 0.0361; in experiment [2] (cc. 100 µM), 0.00. In addition, the “DF norm AVERAGE OR71a” value in experiment [2] (setting [3]), in experiment [2] (setting [4]) and in experiment [2] (setting [5]) was 0 each time.
On to `CC1=CCC[C@@]2(C)[C@@H]3CC[C@]12CC3(C)C` [(−)-α-neoclovene], for which the “OR10a Average response (VUAA1-normalized)” value in experiment [1] (setting [7]) turned out to be 0.00; in experiment [1] (setting [8]), 0.13; in experiment [1] (setting [9]) it was 0.12. The “OR10a response (VUAA1-normalized response)” value in experiment [1] (VOC concentration 1 μM) is given as 0.00; in experiment [1] (VOC concentration 10 μM) it was 0.13; in experiment [1] (VOC concentration 100 μM) it was 0.12. Moreover, the Average response in experiment [2] (cc. 1 µM) turned out to be 0.00; in experiment [2] (cc. 10 µM), 0.00; in experiment [2] (cc. 100 µM), 0.0221. Moreover, the “OR71a response (VUAA1-normalized response)” value in experiment [2] (VOC concentration 1 μM), in experiment [2] (VOC concentration 10 μM) and in experiment [2] (VOC concentration 100 μM) was 0.00 in each case. Further, the “DF norm AVERAGE OR71a” value in experiment [2] (setting [10]), in experiment [2] (setting [11]) and in experiment [2] (setting [12]) was 0 in each case.
Regarding `C=C(C)C1CCC2(C)OC2C1` (single isomer, unassigned; (+)) [(+)-limonene oxide], the “DF norm AVERAGE OR10a” value in experiment [1] is 0. Also, the “OR10a Average response (VUAA1-normalized)” value in experiment [1] (setting [7]) was 0.00; in experiment [1] (setting [8]) it was 0.02; in experiment [1] (setting [9]), 0.00. The “OR10a response (VUAA1-normalized response)” value in experiment [1] (VOC concentration 1 μM), in experiment [1] (VOC concentration 10 μM) and in experiment [1] (VOC concentration 100 μM) was 0.00 throughout. In addition, the Average response was found to be 0.0247 in experiment [2] (cc. 1 µM), 0.0256 in experiment [2] (cc. 10 µM) and 0.00 in experiment [2] (cc. 100 µM). The “OR71a response (VUAA1-normalized response)” value in experiment [2] (VOC concentration 1 μM), in experiment [2] (VOC concentration 10 μM) and in experiment [2] (VOC concentration 100 μM) was 0.00 each time. Moreover, the “DF norm AVERAGE OR71a” value in experiment [2] (setting [10]), in experiment [2] (setting [11]) and in experiment [2] (setting [12]) was 0 throughout.
